Reference: US6495356B1, “Beryllofluoride analogues of acyl phosphate polypeptides” (priority 1999, dated 2002)

Key:
NtrC^WT [1] = target: T1, NtrC^WT (Salmonella typhimurium, UniProt P41789, C30V/C364A); assay type: biochemical; details: for Stimulation of the ATPase activity of NtrC^WT: BeCl2 200 μM, AlCl3 200 μM, NaF 5 mM, VO4^3− 1 mM, compared with carbamoyl phosphate 10 mM
T1 construct: made in house
Protocol: NtrC proteins. […] All full-length NtrC proteins (dimer concentration) were maltose binding protein fusions to NtrC lacking its two natural cysteines (MBP-NtrC^C30V,C364A) or its derivatives.
Assays. […] Mol. Biol. 249, 700-713). Prior to addition of ATP, other components were incubated for 30 min at 25° C. together with the indicated small molecule or combination of small molecules (carbamoyl phosphate, 10 mM; BeCl2, 200 μM; AlCl3, 200 μM; NaF, 5 mM; VO4^3−, 1 mM). The response of the ATPase activity of NtrC to the concentration of NaF or BeCl2 was assessed essentially as above, except the reaction time was 10 min.

NtrC^D86N,S160F = target: T2, NtrC^D86N,S160F (Salmonella typhimurium, UniProt P41789, C30V/C364A/D86N/S160F); assay type: biochemical; details: for Effect of single component on ATPase activity of NtrC^D86N,S160F: trace amounts of BeCl2 alone, high concentrations of NaF in absence of BeCl2
T2 construct: made in house

[2] = target: T3, phosphoserine phosphatase (PSP) (Methanocaldococcus jannaschii, UniProt Q58989); assay: Inhibition of hydrolytic activity of PSP; assay type: biochemical, Methanococcus jannaschii; details: for Effect of single component on PSP activity: NaF alone or BeCl2 alone; for Inhibition of hydrolytic activity of PSP: analog generated in situ (NaF plus BeCl2 or AlCl3)
T3 construct: made in house

[3] = system: control region for the fdnG operon; assay: DNase I footprinting of NarL DNA-binding; set-up: species or system E. coli
NtrC^WT [4] = target: T1, NtrC^WT; assay: Formation of open complexes, single-cycle transcription assay; assay type: biochemical; details: ≦100 μM BeFx vs 10 mM carbamoyl phosphate
Protocol: Formation of open complexes was assessed in a single-cycle transcription assay on a supercoiled plasmid template pJES534 (1 nM) (Porter et al. (1993) Genes Dev. 7, 2258-2273; Flashner et al. (1995) J. Mol. Biol. 249, 700-713). NtrC was incubated with 100 μM BeCl2 plus 10 mM NaF or 10 mM carbamoyl phosphate, respectively, at 37° C. for 10 min prior to initiation of the reaction with ATP.
(§1) Transcriptional activation of NtrC was assessed as described in Flashner et al. (1995) J. Mol. Biol. 249, 700-713. DNA-binding of OmpR was assessed as described in Huang and Igo (1996) J. Mol. Biol. 262, 615-628. DNA-binding of NarL was assessed as described in Li et al. (1994) J. Mol. Biol. 241, 150-165 and Darwin et al. (1997) Mol. Microbiol 25, 583-595.

NtrC^D86C,Fe = target: T4, NtrC^D86C,Fe (Salmonella typhimurium, UniProt P41789, C30V/C364A/D86C); assay: Fe-mediated cleavage of NtrC^D86C,Fe; assay type: biochemical; details: BeCl2 200 μM, NaF 10 mM; divalent cation required
T4 construct: made in house
Protocol: Fe-mediated cleavage of NtrC was assessed as follows: NtrC (5 to 10 μM) was incubated for 30 min at 25° C. with the indicated small molecule or combination of small molecules (carbamoyl phosphate, 10 mM; BeCl2, 200 μM; NaF, 10 mM) in cleavage buffer (10 mM MOPS, pH 8.0, 50 mM KCl, 8 mM MgCl2, 5% glycerol, 1 mM EDTA). Then cleavage was initiated by adding H2O2 and sodium ascorbate to final concentrations of 50 mM and samples were subjected to analysis by SDS-PAGE as described (Greiner etal. (1997) Bioconjugate Chem. 8, 44-48).
We have two direct lines of evidence that BeFx mimics effects of phosphorylation of NtrC structurally as well as functionally. […] Rearrangement at the dimer interface of P-NtrC is postulated to drive the formation of active oligomers. […] By contrast, the BeFx-dependent cleavage did require a divalent cation, and either Mg^2+ or Mn^2+ could serve (FIG. 3B). Thus, like phosphorylation (Parkinson and Kofoid (1992) Annu. Rev. Genet. 26, 71-112; Stock et al. (1995) in Two-component signal transduction, eds. Hoch and Silhavy (ASM, Washington, D.C.), pp. 25-51; Lukat et al. (1992) Proc. Natl. Acad. Sci. USA 89, 718-722; Feng et al. (1992) J. Bacteriol. 174, 6061-6070), the interaction between BeFx and D54 of NtrC requires a divalent cation. […]

[5] = system: mutant forms of NtrC in which D54 has been replaced by A or N; assay: ATPase activity of NtrC D54 mutants; assay type: biochemical, Salmonella typhimurium; details: data not shown
[6] = system: ompF promoter-regulatory region; assay: DNase I footprinting of OmpR binding; set-up: species or system E. coli; details: compared with P-OmpR (EnvZ or acetyl phosphate); NaF 10 mM, BeCl2 100 μM
Protocol: Binding of BeFx.OmpR to the ompF promoter-regulatory region was assessed by DNase I footprinting as described in Huang and Igo (1996) J. Mol. Biol. 262, 615-628 and was compared to that of P-OmpR. The concentrations of OmpR were: 6.4 μM (lanes 1, 6, 11 and 16); 1.6 μM (lanes 2, 7, 12 and 17); 0.4 μM (lanes 3, 8, 13 and 18); 0.1 μM (lanes, 4, 9, 14 and 19); and 0 μM (lanes 5, 10, 15 and 20). For samples in lanes 6-10, OmpR was phosphorylated by MBP-EnvZ (0.3 μM) as described (Huang and Igo (1996) J. Mol. Biol. 262, 615-628). For samples in lanes 11-20, NaF (10 mM) was present and for those in lanes 16-20, BeCl2 (100 μM) was also present. Non-specific DNA-binding observed in the presence of BeCl2 and NaF in lanes 16 and 17 was not observed when OmpR was phosphorylated by EnvZ (lanes 6 and 7) unless much higher concentrations of OmpR were used (see FIG. 4).
as §1

[7] = target: FliM peptide (residues 1-16); assay: FliM peptide binding of CheY (tryptophan fluorescence quenching); set-up: species or system E. coli; details: CheY 10 μM; ± 2 mM BeCl2, 20 mM NaF, 20 mM MgCl2; read-out: Dissociation constant for binding to the FliM peptide
Protocol: FliM peptide binding of CheY was assessed as described in McEvoy et al. (1999) J. Mol. Biol. 289, 1423-1433. Fluorescence intensity of CheY (10 μM) at 340 nm was measured as a function of added FliM peptide in the absence or presence of 2 mM BeCl2, 20 mM NaF and 20 mM MgCl2.
There is no direct in vitro assay for the activity of P-CheY in reversing the direction of flagellar rotation. […] The strength of this binding, which was assessed by quenching of the intrinsic tryptophan fluorescence of CheY, was recently reported to be phosphorylation-dependent (McEvoy et al. (1999) J. Mol. Biol. 289, 1423-1433). […] By this criterion, BeFx.CheY is as active as P-CheY. Like BeFx.CheY, a phosphonate derivative of CheY^D57C appears to be a biochemical analogue of P-CheY, but it is difficult to prepare (Halkides et al. (1998) Biochemistry 37, 13674-13680). Such analogues are extremely useful because the acyl phosphate linkage of P-CheY is exceptionally labile (half life of seconds) (Parkinson and Kofoid (1992) Annu. Rev. Genet. 26, 71-112; Stock et al. (1995) in Two-component signal transduction, eds. Hoch and Silhavy (ASM, Washington, D.C.), pp. 25-51).

[Be+2].[Cl-].[Cl-] [BeCl2]
BeCl2 concentration at which inhibition of ATPase activity occurred (NtrC^WT [1]; 5 mM NaF): ≥ 200 µM | BeCl2 concentration at which ATPase activity was detected (lowest tested) (NtrC^WT [1]; 5 mM NaF, NtrC^WT 0.4 μM dimer): 5 µM | BeCl2 concentration giving highest ATPase activity (NtrC^WT [1]; 5 mM NaF, NtrC^WT 0.4 μM dimer): 100 µM | Effect of single component on ATPase activity of NtrC^D86N,S160F (NtrC^D86N,S160F): inhibited | Effect of single component on PSP activity [2]: Neither alone had such a profound effect

[F-].[Na+] [NaF]
NaF concentration at which inhibition of ATPase activity occurred (NtrC^WT [1]; 50 μM BeCl2): ≥ 50 mM | NaF concentration below which no ATPase activity was observed (NtrC^WT [1]; 50 μM BeCl2): 1 mM | Effect of single component on ATPase activity of NtrC^D86N,S160F (NtrC^D86N,S160F): inhibited | Effect of single component on PSP activity [2]: Neither alone had such a profound effect

[O]=[V]([O-])([O-])[O-] [VO4^3−, orthovanadate]
Stimulation of the ATPase activity of NtrC^WT (NtrC^WT [1]): neither AlFx nor VO4^3− could substitute | Inhibition of hydrolytic activity of PSP [2]: observed to inhibit PSP activity

ADP.BeFx
Inhibition of the ATPase activity of NtrC^D86N,S160F (NtrC^D86N,S160F; ADP complexes of phosphate analogs): neither ADP.BeFx nor ADP.AlFx nor ADP.VO4^3− appeared to inhibit

BeFx.NarL: beryllofluoride complex of E. coli response regulator NarL
Activity relative to P-NarL ([3]; 200 μM BeCl2, 10 mM NaF and 5 mM MgCl2): less active | Binding to the control region for the fdnG operon ([3]; compared with P-NarL, data not shown): bound similarly

aluminofluoride [AlFx]
Stimulation of the ATPase activity of NtrC^WT (NtrC^WT [1]): neither AlFx nor VO4^3− could substitute | Stimulation of the ATPase activity of unphosphorylated NtrC^D86N,S160F (NtrC^D86N,S160F): but not Alfx | Inhibition of hydrolytic activity of PSP [2]: can substitute for BeF3^− to inhibit PSP activity

beryllofluoride [BeFx]
Stimulation of the ATPase activity of NtrC^WT (NtrC^WT [1]): as effective as carbamoyl phosphate | Stimulation of the ATPase activity of unphosphorylated NtrC^D86N,S160F (NtrC^D86N,S160F): substantially stimulated | Activation of transcription by σ54-holoenzyme (open complexes) (NtrC^WT [4]): at least as great as that of the phosphorylated protein | Inhibition of PSP activity at different temperatures ([2]; 70° C. or room temperature, data not shown): similarly inhibited | Inhibition of hydrolytic activity of PSP [2]: significantly inhibited | Phosphorylation-dependent Fe-mediated cleavage (NtrC^D86C,Fe): yields an otherwise phosphorylation-dependent cleavage | Stimulation of ATPase activity of D54A / D54N NtrC [5]: failure of BeFx to stimulate

B1: BeFx.OmpR: beryllofluoride complex of E. coli response regulator OmpR (protein, UniProt P0AA16 1-239, looked up)
DNA-binding dual …: MQENYKILVVDDDMRLRALLERYLTEQGFQVRSVANAEQMDRLLTRESFHLMVLDLMLPGEDGLSICRRLRSQSNPMPIIMVTAKGEEVDRIVGLEIGADDYIPKPFNPRELLARIRAVLRRQANELPGAPSQEEAVIAFGKFKLNLGTREMFREDEPMPLTSGEFAVLKALVSHPREPLSRDKLMNLARGREYSAMERSIDVQISRLRRMVEEDPAHPRYIQTVWGLGYVFVPDGSKA
modifications: beryllofluoride complex
Binding to regulatory region upstream of the ompF promoter [6]: better than P-OmpR

B2: BeFx.CheY: beryllofluoride acyl phosphate analogue of E. coli response regulator CheY (protein, UniProt P0AE67 2-129, looked up)
Chemotaxis protein CheY: ADKELKFLVVDDFSTMRRIVRNLLKELGFNNVEEAEDGVDALNKLQAGGYGFVISDWNMPNMDGLELLKTIRADGAMSALPVLMVTAEAKKENIIAAAQAGASGYVVKPFTAATLEEKLNKIFEKLGM
modifications: beryllofluoride complex
Kd [7]: 26 µM

B3: CheY: E. coli CheY, central regulator of the chemotactic response, unmodified inactive form (protein, UniProt P0AE67 2-129, looked up)
Chemotaxis protein CheY: B2 Chemotaxis protein CheY
Kd [7]: 500 µM
